The molecules below were run against T1, angiotensin converting enzyme (ACE) (Oryctolagus cuniculus, UniProt P12822) (assay: Spectrophotometric Assay for Angiotensin Converting Enzyme Inhibitors (in vitro inhibition of ACE, benzoyl-glycyl-histidyl-leucine substrate)). Conditions: crude ACE extract from rabbit lung; 30 minutes at 37° C.; hippuric acid absorbance at 228 nm.
T1 construct: The ACE was extracted from rabbit lung acetane powder; tissue Pel-Freez, Biol. Inc; host or cells: rabbit lung acetone powder, 40,000 g supernatant used as crude extract
T1 sequence (P12822 34-1310): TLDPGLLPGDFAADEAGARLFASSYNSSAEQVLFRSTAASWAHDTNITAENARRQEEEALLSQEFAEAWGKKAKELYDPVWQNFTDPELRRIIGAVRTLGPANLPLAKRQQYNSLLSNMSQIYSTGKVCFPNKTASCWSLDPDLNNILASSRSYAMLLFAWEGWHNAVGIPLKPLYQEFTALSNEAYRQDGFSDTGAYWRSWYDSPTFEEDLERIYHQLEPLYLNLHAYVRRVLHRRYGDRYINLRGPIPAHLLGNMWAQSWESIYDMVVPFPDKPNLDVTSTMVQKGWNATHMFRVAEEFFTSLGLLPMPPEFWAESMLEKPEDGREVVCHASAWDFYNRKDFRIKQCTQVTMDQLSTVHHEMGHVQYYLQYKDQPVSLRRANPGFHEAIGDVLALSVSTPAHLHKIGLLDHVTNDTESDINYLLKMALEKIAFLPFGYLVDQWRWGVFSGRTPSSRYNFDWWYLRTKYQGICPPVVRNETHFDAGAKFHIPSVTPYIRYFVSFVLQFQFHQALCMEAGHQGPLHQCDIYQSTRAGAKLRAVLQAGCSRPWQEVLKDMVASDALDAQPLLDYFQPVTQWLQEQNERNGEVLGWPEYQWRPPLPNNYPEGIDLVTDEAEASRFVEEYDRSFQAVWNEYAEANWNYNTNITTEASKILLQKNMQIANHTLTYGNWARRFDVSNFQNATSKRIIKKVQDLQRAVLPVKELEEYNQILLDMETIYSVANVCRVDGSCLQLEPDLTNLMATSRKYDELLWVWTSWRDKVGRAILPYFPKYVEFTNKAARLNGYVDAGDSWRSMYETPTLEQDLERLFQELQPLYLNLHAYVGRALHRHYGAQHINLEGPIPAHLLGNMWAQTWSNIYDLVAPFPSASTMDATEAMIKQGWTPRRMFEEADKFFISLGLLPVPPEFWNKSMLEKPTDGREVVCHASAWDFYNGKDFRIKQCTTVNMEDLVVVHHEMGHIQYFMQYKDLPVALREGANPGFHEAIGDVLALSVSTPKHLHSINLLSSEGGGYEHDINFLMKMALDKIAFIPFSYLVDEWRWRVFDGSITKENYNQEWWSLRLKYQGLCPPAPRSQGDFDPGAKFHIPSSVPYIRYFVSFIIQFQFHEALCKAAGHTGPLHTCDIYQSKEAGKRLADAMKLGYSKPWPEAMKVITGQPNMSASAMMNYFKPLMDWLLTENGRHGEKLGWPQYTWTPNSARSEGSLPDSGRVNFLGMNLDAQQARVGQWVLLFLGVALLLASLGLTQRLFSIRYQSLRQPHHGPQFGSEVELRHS
Assay type: biochemical
Description: Spectrophotometric Assay for Angiotensin Converting Enzyme Inhibitors
The in vitro activity for inhibition of the angiotensin converting enzyme (ACE) was measured by the method of Cushman, D. W. and Cheung, H. S., Biochem. Pharmacol., 20, 1637-1648 (1971), using benzoyl-glycyl-histidyl-leucine as the substrate. The reaction mixture consisted of 50 μl. of potassium phosphate (500 mM., […]), 30 μl. of sodium chloride (2500 mM.), 25 μl. of substrate (50 mM.), 30 to 50 μl. of the crude extract of ACE, 10 μl. of test compound (2.5 mM.) or vehicle and a suitable amount of distilled water to give a total volume of 250 μl. This reaction mixture was incubated for 30 minutes at 37° C. and the reaction was then terminated by the addition of 250 μl. of 1 N hydrochloric acid. The hippuric acid was then extracted with 1.5 ml. of ethyl acetate by vortex mixing for 15 seconds. After centrifugation, one ml. of the ethyl acetate layer was pipetted into a new tube and evaporated to dryness. The extracted hippuric acid was then dissolved in one ml. of water and the amount of this acid was then measured by its absorbance at 228 nm. The ACE was extracted from rabbit lung acetane powder (Pel-Freez, Biol. Inc.) by blending 5 g. of the powder in 50 ml. of phosphate buffer (50 mM., pH 8.3) and then centrifuging at 40,000 g for 40 minutes. The supernatant was then kept at 5° C. and used as the enzyme source. The activity of the ACE inhibitor was calculated as the percent inhibition of ACE activity compared to the control value of that particular assay. A full dose-response inhibitory curve is then performed to determine the IC50 value which may be defined as the molar concentration of a compound that will inhibit ACE activity by 50%.

| SMILES | IC50 [µM] |
| --- | --- |
| CC(=O)SC(CC(=O)c1ccccc1)C(=O)N1CSC[C@H]1C(=O)O (stereo partly drawn) [[4R]-3-(2-Acetylthio-3-benzoylpropionyl)-4-thiazolidinecarboxylic acid] | 8.4 |
| CC(=O)SC(CC(=O)N1CSC[C@H]1C(=O)OCc1c(C)cc(C)cc1C)C(=O)c1ccc(F)cc1 (stereo partly drawn) [[4R]-3-[3-Acetylthio-3-(4-fluorobenzoyl)propionyl]-4-thiazolidinecarboxylicacid, 2,4,6-trimethylbenzyl ester] | 16.8 |
| CC(=O)SC(C(=O)c1ccccc1)[C@@H](C)C(=O)N1CSC[C@H]1C(=O)O (stereo partly drawn) [[4R-(4R*,2'S*)]-3-(3-Acetylthio-3-benzoyl-2-methylpropionyl)-4-thiazolidinecarboxylic acid] | 0.067 |

Source: patent US4374249A, “[4R]-3-(ω-Aroylpropionyl)-4-thiazolidinecarboxylic acids and esters” (American Cyanamid Company, priority 1980, dated 1983)
